Laboratory results taken from US20240116985A1, “STAPLED PEPTIDES AND METHODS THEREOF” (priority 2020, published 2024).
≈ marks a conversion by molar mass, not a printed value. Like-named read-outs stand apart in the source and are kept apart here.

Columns and labels:
[1] = target: T1, full-length beta-Catenin (Uniprot ID P35222) (Homo sapiens, UniProt P35222); assay: Fluorescence polarization IC50 (beta-catenin / 5FAM-TCF4 10-53 competition); type: binding; conditions: fluorescence polarization
T1 construct: 10 nM full-length beta-Catenin (Uniprot ID P35222)
T1 sequence (P35222 1-781): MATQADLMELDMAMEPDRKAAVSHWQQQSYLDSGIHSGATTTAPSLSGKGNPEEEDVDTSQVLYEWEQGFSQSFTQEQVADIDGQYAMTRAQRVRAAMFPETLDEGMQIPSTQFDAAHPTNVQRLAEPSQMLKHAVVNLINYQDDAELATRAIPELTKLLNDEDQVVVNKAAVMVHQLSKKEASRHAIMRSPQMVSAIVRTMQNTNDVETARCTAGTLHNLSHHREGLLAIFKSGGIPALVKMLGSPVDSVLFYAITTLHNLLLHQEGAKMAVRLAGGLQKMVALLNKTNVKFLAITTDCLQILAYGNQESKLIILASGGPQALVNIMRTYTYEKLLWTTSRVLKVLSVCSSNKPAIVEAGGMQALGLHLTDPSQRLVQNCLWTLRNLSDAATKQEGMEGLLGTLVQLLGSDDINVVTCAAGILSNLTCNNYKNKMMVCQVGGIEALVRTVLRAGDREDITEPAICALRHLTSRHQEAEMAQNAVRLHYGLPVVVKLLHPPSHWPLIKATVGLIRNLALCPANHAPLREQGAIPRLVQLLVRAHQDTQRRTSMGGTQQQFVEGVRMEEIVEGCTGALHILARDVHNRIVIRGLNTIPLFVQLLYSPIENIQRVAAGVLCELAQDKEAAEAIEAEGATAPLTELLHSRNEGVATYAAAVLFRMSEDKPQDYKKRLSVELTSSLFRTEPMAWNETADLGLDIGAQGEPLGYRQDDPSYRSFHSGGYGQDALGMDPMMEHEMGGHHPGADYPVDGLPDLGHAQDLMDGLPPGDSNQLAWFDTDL

[2] = Solubility in PBS; type: physicochemical
Method in brief: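 Steps: ultracentrifuge the peptide PBS solution, inject the supernatant on HPLC, inject a 50 μM peptide DMSO solution as reference, then calculate solubility as area ratio (PBS/DMSO) × 50 uM.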

Row | Compound | IC50 ([1]; read-out: beta-Catenin FP IC50) | Solubility ([2]; Solubility (uM)) | IC50 ([1]; beta-catenin, read-out: FP EC50) | Solubility [2]
1 | CC(=O)N1CCC[C@]12CC=CCCCC1(CCCC=CCCCCCCCC[C@@](C)(C(=O)N[C@@H](Cc3ccccc3Cl)C(=O)N[C@@H](Cc3csc4ccccc34)C(=O)N[C@H](C(N)=O)[C@@H](C)O)NC(=O)[C@H]([C@@H](C)O)NC(=O)[C@H](Cc3ccccc3)NC(=O)[C@H](C)NC(=O)[C@H](C)NC(=O)[C@H](CC(=O)O)NC(=O)[C@H](CC(=O)O)NC1=O)NC(=O)[C@H](CC(C)(C)C)NC(=O)[C@H](CC(=O)O)NC2=O (stereo partly drawn) [I-1262, Ac-PL3-Asp-Npg-B5-Asp-Asp-Ala-Ala-Phe-Thr-S10-2C1F-BztA-Thr-NH2] | 1120 nM | 49 µM (≈ 92.7 µg/mL) | – | –
2 | CC(=O)N1CCC[C@]12CC=CCCCC1(CCCC=CCCCCCC[C@@](C)(C(=O)N[C@@H](Cc3ccsc3)C(=O)N[C@@H](Cc3csc4ccccc34)C(=O)N[C@@H](CCO)C(N)=O)NC(=O)[C@H](CC(C)C)NC(=O)[C@H](Cc3ccccc3)NC(=O)[C@H](C)NC(=O)[C@H](C)NC(=O)[C@H](CC(=O)O)NC(=O)[C@H](CC(=O)O)NC1=O)NC(=O)[C@H](CC(C)(C)C)NC(=O)[C@H](CC(=O)O)NC2=O (stereo partly drawn) [I-1197, Ac-PL3-Asp-Npg-B5-Asp-Asp-Ala-Ala-Phe-Leu-S8-3Thi-BztA-Hse-NH2] | 44 nM | – | – | 10 µM (≈ 18.5 µg/mL)
3 | CC(=O)N1CCC[C@H]1C(=O)N[C@@H](CC(=O)O)C(=O)N[C@@H](CC(C)(C)C)C(=O)N[C@]1(C)CCCC=CCCCOC(=O)N2CC[C@@](C(=O)N[C@@H](Cc3ccsc3)C(=O)N[C@@H](Cc3csc4ccccc34)C(=O)N[C@@H](CCC(N)=O)C(N)=O)(C2)NC(=O)[C@H](CC(N)=O)NC(=O)[C@H](Cc2ccccc2)NC(=O)[C@H](C)NC(=O)[C@H](C)NC(=O)[C@H](CC(=O)O)NC(=O)[C@H](CC(=O)O)NC1=O [I-1182, Ac-Pro-Asp-Npg-R5-Asp-Asp-Ala-Ala-Phe-Asn-PyrS2-3Thi-BztA-Gln-NH2] | 144 nM | 48 µM (≈ 88.9 µg/mL) | – | –
4 | CC(=O)N1CCC[C@]12CC=CCCCC1(CCCC=CCCCOC(=O)N3CC[C@@](C(=O)N[C@@H](Cc4ccccc4Cl)C(=O)N[C@@H](Cc4csc5ccccc45)C(=O)N[C@H](C(N)=O)[C@@H](C)O)(C3)NC(=O)[C@H](CO)NC(=O)[C@H](Cc3ccccc3)NC(=O)[C@H](C)NC(=O)[C@H](C)NC(=O)[C@H](CC(=O)O)NC(=O)[C@H](CC(=O)O)NC1=O)NC(=O)[C@H](CC1CCCCC1)NC(=O)[C@H](CC(=O)O)NC2=O (stereo partly drawn) [I-1135, Ac-PL3-Asp-Cha-B5-Asp-Asp-Ala-Ala-Phe-Ser-PyrS2-2C1F-BztA-Thr-NH2] | 20 nM | 39 µM (≈ 74.8 µg/mL) | – | –
5 | CC(=O)N1CCC[C@]12CC=CCCCC1(CCCC=CCCCCCC[C@@](C)(C(=O)N[C@@H](Cc3ccccc3Cl)C(=O)N[C@@H](Cc3csc4ccccc34)C(=O)N[C@@H](Cc3c[nH]cn3)C(N)=O)NC(=O)[C@H](CC(C)C)NC(=O)[C@H](Cc3ccccc3)NC(=O)[C@H](C)NC(=O)[C@H](C)NC(=O)[C@H](CC(=O)O)NC(=O)[C@H](CC(=O)O)NC1=O)NC(=O)[C@H](CC(C)(C)C)NC(=O)[C@H](CC(=O)O)NC2=O (stereo partly drawn) [I-1194, Ac-PL3-Asp-Npg-B5-Asp-Asp-Ala-Ala-Phe-Leu-S8-2C1F-BztA-His-NH2] | 66.5 nM | – | – | 10 µM (≈ 19.1 µg/mL)
6 | CCCCCCCC(=O)N1CCC[C@]12CC=CCCCC1(CCCC=CCCCOC(=O)N3CC[C@@](C(=O)N[C@@H](Cc4ccccc4Cl)C(=O)N[C@@H](Cc4csc5ccccc45)C(=O)N[C@@H](C(N)=O)[C@H](C)O)(C3)NC(=O)[C@H](CC(N)=O)NC(=O)[C@H](Cc3ccccc3)NC(=O)[C@H](C)NC(=O)[C@H](C)NC(=O)[C@H](CC(=O)O)NC(=O)[C@H](CC(=O)O)NC1=O)NC(=O)[C@H](CC(C)(C)C)NC(=O)[C@H](CC(=O)O)NC2=O (stereo partly drawn) [I-1252, Oct-PL3-Asp-Npg-B5-Asp-Asp-Ala-Ala-Phe-Asn-PyrS2-2C1F-BztA-dThr-NH2] | 546 nM | 44 µM (≈ 88.2 µg/mL) | – | –
7 | CC(=O)N1CCC[C@]12CC=CCCCC1(CCCC=CCCCOC(=O)N3CC[C@@](C(=O)N[C@@H](Cc4cccc(C(F)(F)F)c4)C(=O)N[C@@H](Cc4csc5ccccc45)C(=O)N[C@@H](CO)C(N)=O)(C3)NC(=O)[C@H]([C@@H](C)O)NC(=O)[C@H](Cc3ccccc3)NC(=O)[C@H](C)NC(=O)[C@H](C)NC(=O)[C@H]([C@@H](C)O)NC(=O)[C@H](CC(=O)O)NC1=O)NC(=O)[C@H](CC(C)(C)C)NC(=O)[C@H](CC(=O)O)NC2=O (stereo partly drawn) [I-1271, Ac-PL3-Asp-Npg-B5-Asp-Thr-Ala-Ala-Phe-Thr-PyrS2-3F3MeF-BztA-Ser-NH2] | 682 nM | – | – | 10 µM (≈ 19.1 µg/mL)
8 | CC(=O)N1CCC[C@]12CC=CCCCC1(CCCC=CCCCOC(=O)N3CC[C@@](C(=O)N[C@@H](Cc4ccccc4Cl)C(=O)N[C@@H](Cc4csc5ccccc45)C(=O)N[C@@H](CO)C(N)=O)(C3)NC(=O)[C@H]([C@@H](C)O)NC(=O)[C@H](Cc3ccccc3)NC(=O)[C@H](C)NC(=O)[C@H](CC(C)C)NC(=O)[C@H](CC(=O)O)NC(=O)[C@H](CC(=O)O)NC1=O)NC(=O)[C@H](Cc1ccccc1)NC(=O)[C@H](CC(=O)O)NC2=O (stereo partly drawn) [I-1156, Ac-PL3-Asp-Phe-B5-Asp-Asp-Leu-Ala-Phe-Thr-PyrS2-2C1F-BztA-Ser-NH2] | 14 nM | 48 µM (≈ 93.8 µg/mL) | – | –
9 | CC(=O)N1CCC[C@]12CC=CCCCC1(CCCC=CCCCOC(=O)N3CC[C@@](C(=O)N[C@@H](Cc4ccccc4Cl)C(=O)N[C@@H](Cc4csc5ccccc45)C(=O)N[C@H](CO)[C@@H](C)O)(C3)NC(=O)[C@H](CC(C)C)NC(=O)[C@H](Cc3ccccc3)NC(=O)[C@H](C)NC(=O)[C@H](CCCCNC(C)C)NC(=O)[C@H](CC(=O)O)NC(=O)[C@H](CC(=O)O)NC1=O)NC(=O)[C@H](CC(C)(C)C)NC(=O)[C@H](CC(=O)O)NC2=O (stereo partly drawn) [I-1313, Ac-PL3-Asp-Npg-B5-Asp-Asp-iPrLys-Ala-Phe-Leu-PyrS2-2C1F-BztA-Thro1] | 12 nM | – | – | 10 µM (≈ 20 µg/mL)

Now from value to compound:

Row | IC50 ([1]; read-out: beta-Catenin FP IC50) | Solubility ([2]; Solubility (uM)) | IC50 ([1]; beta-catenin, read-out: FP EC50) | Solubility [2] | Compound
10 | 1160 nM | – | 1160 nM | 10 µM (≈ 20 µg/mL) | CC(=O)N1CCC[C@]12CC=CCCCC1(CCCC=CCCCOC(=O)N3CC[C@@](C(=O)N[C@@H](Cc4ccccc4)C(=O)N[C@@H](Cc4csc5ccccc45)C(=O)N[C@@H](CCC(N)=O)C(N)=O)(C3)NC(=O)[C@H](CC(C)C)NC(=O)[C@H](Cc3ccccc3)NC(=O)[C@H](C)NC(=O)[C@H](CCCCNC(C)C)NC(=O)[C@H]([C@@H](C)O)NC(=O)[C@H](CC(=O)O)NC1=O)NC(=O)[C@H](CC(C)(C)C)NC(=O)[C@H](CC(N)=O)NC2=O (stereo partly drawn) [I-1288, Ac-PL3-Asn-Npg-B5-Asp-Thr-iPrLys-Ala-Phe-Leu-PyrS2-Phe-BztA-Gln-NH2]
11 | 38.5 nM | – | – | 10 µM (≈ 18.5 µg/mL) | CC(=O)N1CCC[C@]12CC=CCCCC1(CCCC=CCCCCCC[C@@](C)(C(=O)N[C@@H](Cc3ccsc3)C(=O)N[C@@H](Cc3csc4ccccc34)C(=O)N[C@H](C(N)=O)[C@@H](C)O)NC(=O)[C@H](CC(C)C)NC(=O)[C@H](Cc3ccccc3)NC(=O)[C@H](C)NC(=O)[C@H](C)NC(=O)[C@H](CC(=O)O)NC(=O)[C@H](CC(=O)O)NC1=O)NC(=O)[C@H](CC(C)(C)C)NC(=O)[C@H](CC(=O)O)NC2=O (stereo partly drawn) [I-1191, Ac-PL3-Asp-Npg-B5-Asp-Asp-Ala-Ala-Phe-Leu-S8-3Thi-BztA-Thr-NH2]
12 | 115 nM | 11 µM (≈ 21.2 µg/mL) | – | – | CC(=O)N1CCC[C@]12CC=CCCCC1(CCCC=CCCCOC(=O)N3CC[C@@](C(=O)N[C@@H](Cc4ccsc4)C(=O)N[C@@H](Cc4csc5ccccc45)C(=O)N[C@@H](CCC(N)=O)C(N)=O)(C3)NC(=O)[C@H](CC(C)C)NC(=O)[C@H](Cc3ccccc3)NC(=O)[C@H](C)NC(=O)[C@H](C)NC(=O)[C@H](CC(=O)O)NC(=O)[C@H](CCC(N)=O)NC1=O)NC(=O)[C@H](CC(C)(C)C)NC(=O)[C@H](CC(=O)O)NC2=O (stereo partly drawn) [I-1211, Ac-PL3-Asp-Npg-B5-Gln-Asp-Ala-Ala-Phe-Leu-PyrS2-3Thi-BztA-Gln-NH2]
13 | 44.5 nM | 19 µM (≈ 35.6 µg/mL) | – | – | CC(=O)N1CCC[C@]12CC=CCCCC1(CCCC=CCCCCCC[C@@](C)(C(=O)N[C@@H](Cc3ccsc3)C(=O)N[C@@H](Cc3csc4ccccc34)C(=O)N[C@H](CCC(N)=O)C(N)=O)NC(=O)[C@H](CC(C)C)NC(=O)[C@H](Cc3ccccc3)NC(=O)[C@H](C)NC(=O)[C@H](C)NC(=O)[C@H](CC(=O)O)NC(=O)[C@H](CC(=O)O)NC1=O)NC(=O)[C@H](CC(C)(C)C)NC(=O)[C@H](CC(=O)O)NC2=O (stereo partly drawn) [I-1199, Ac-PL3-Asp-Npg-B5-Asp-Asp-Ala-Ala-Phe-Leu-S8-3Thi-BztA-dGln-NH2]
14 | 4210 nM | – | – | 10 µM (≈ 19.4 µg/mL) | CC(=O)N1CCC[C@]12CC=CCCCC1(CCCC=CCCCOC(=O)N3CC[C@@](C(=O)N[C@@H](Cc4ccccc4)C(=O)N[C@@H](Cc4csc5ccccc45)C(=O)N[C@@H](CCC(N)=O)C(N)=O)(C3)NC(=O)[C@H](CC(C)C)NC(=O)[C@H](Cc3ccccc3)NC(=O)[C@H](C)NC(=O)[C@H](CCCCNC(C)C)NC(=O)[C@H]([C@@H](C)O)NC(=O)[C@H](CC(N)=O)NC1=O)NC(=O)[C@H](C)NC(=O)[C@H](CC(=O)O)NC2=O (stereo partly drawn) [I-1376, Ac-PL3-Asp-Ala-B5-Asn-Thr-iPrLys-Ala-Phe-Leu-PyrS2-Phe-BztA-Gln-NH2]
